# pIC50: −log10 of the molar value.
# Target: T1, dopamine D3 receptor (D3), Sf9 (Homo sapiens, UniProt P35462)
# T1 construct: gene DRD3; full-length from pCMV5-hD3, no tag mentioned; membranes of Sf9 cells (baculovirus)
# Assay: [3H]spiperone competition binding, Sf9 membranes
# Details: read-out: D3 / + NaCl
# T1 sequence (P35462 whole entry): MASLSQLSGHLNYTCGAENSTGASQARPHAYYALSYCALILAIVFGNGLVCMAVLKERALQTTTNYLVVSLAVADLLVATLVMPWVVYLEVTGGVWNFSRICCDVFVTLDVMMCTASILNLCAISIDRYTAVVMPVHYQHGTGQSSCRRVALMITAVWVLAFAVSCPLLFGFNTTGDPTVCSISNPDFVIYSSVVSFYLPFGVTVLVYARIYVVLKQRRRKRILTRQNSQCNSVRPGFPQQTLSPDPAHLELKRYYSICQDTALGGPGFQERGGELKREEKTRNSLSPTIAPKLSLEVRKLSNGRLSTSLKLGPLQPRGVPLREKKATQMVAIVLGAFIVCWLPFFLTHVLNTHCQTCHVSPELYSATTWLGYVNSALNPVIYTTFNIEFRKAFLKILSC
row,Compound,pIC50
1,CCCN(CCC)C1Cc2cc(OC)c(OC)cc2C1 [U 99194],6.27
2,COc1ccccc1N1CCN(CCCCNC(=O)c2ccc(-c3ccc(C(C)=O)cc3)cc2)CC1 [GR 103691],9.34

# Source: paper PMC4933336, “Examining the Effects of Sodium Ions on the Binding of Antagonists to Dopamine D2 and D3 Receptors” (PLoS ONE, 2016)
